From patent publication US20250032524A1, “BROAD SPECTRUM AMINOGLYCOSIDES AND USES THEREOF” (REVAGENIX, INC., priority 2022, published 2025)
Read-outs that look alike come from different tables or passages of the source.

What was measured:
Type in all cases: cell-based
[1] = tested on: C. freundii; assay: MIC broth microdilution (CLSI); conditions: Citrobacter freundii, read-out: Activity (MIC)
Procedure, shortened: (§1)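 First, a colony from the previous day's agar plate is suspended in saline to 0.5 McFarland. Next, this is added to cation-adjusted Mueller-Hinton broth containing 2-fold serial compound dilutions, giving 5×10^5 CFU/mL. Trays then incubate 18-24 hours at 35° C.; MIC is the lowest concentration without visible growth (OD 600 nm<0.05).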

[2] = tested on: K. aerogenes; assay: MIC broth microdilution (CLSI); conditions: Klebsiella aerogenes; strain AEAE1042, MDR Clinical isolate (CDC CRE panel), CDC AR Bank 0161
Procedure, shortened: as §1

[3] = tested on: E. coli; assay: MIC broth microdilution (CLSI); conditions: Escherichia coli
Procedure, shortened: as §1

[4] = tested on: A. baumannii; assay: MIC broth microdilution (CLSI); conditions: Acinetobacter baumannii
Procedure, shortened: as §1

[5] = tested on: S. aureus; assay: MIC broth microdilution (CLSI); conditions: for MIC: Staphylococcus aureus
Procedure, shortened: as §1

[6] = tested on: P. aeruginosa; assay: MIC broth microdilution (CLSI); conditions: Pseudomonas aeruginosa
Procedure, shortened: as §1

[7] = tested on: E. cloacae; assay: MIC broth microdilution (CLSI); conditions: Enterobacter cloacae; strain AECL1089, MDR Clinical isolate (CDC CRE panel), CDC AR Bank 0154
Procedure, shortened: as §1

[8] = tested on: K. pneumoniae; assay: MIC broth microdilution (CLSI)
Procedure, shortened: as §1

[9] = tested on: S. enterica; assay: MIC broth microdilution (CLSI); conditions: Salmonella enterica, read-out: Activity (MIC)
Procedure, shortened: as §1

[10] = tested on: P. mirabilis; assay: MIC broth microdilution (CLSI); conditions: Proteus mirabilis; strain APMI1048, MDR Clinical isolate (CDC CRE panel), CDC AR Bank 0159
Procedure, shortened: as §1

[11] = tested on: all sets of organisms tested (SENTRY clinical isolates); assay: Antibacterial surveillance, overall statement; conditions: all sets of organisms tested (Table 3); read-out: MIC50,90 values
Protocol: (§2) Minimum inhibitory concentrations for representative example compounds herein were determined by a broth microdilution method in accordance with the Clinical and Laboratory Standards Institute (CLSI) guidelines. In brief, organism suspensions were adjusted to a 0.5 McFarland standard to yield a final inoculum between 3×10^5 and 7×10^5 colony-forming units (CFU)/mL. The inoculum was prepared by suspension of a colony from an agar plate that was prepared the previous day. Compound dilutions and inoculum were prepared in sterile, cation adjusted Mueller-Hinton Broth (Beckton Dickinson).
(§3) Bacteria were suspended in sterile saline and added to each assay plate to obtain a final concentration of 5×10^5 CFU/mL. An inoculum volume of 100 μL was added to wells containing 100 μL of broth with 2-fold serial dilutions of the test compound. All inoculated microdilution trays were incubated in ambient air at 35° C. for 18-24 hours. Following incubation, the lowest concentration of the compound that prevented visible growth (OD 600 nm<0.05) is recorded was the MIC. […] Performance of the assay was monitored by the use of laboratory quality-control strains and a standard compound with a defined MIC spectrum (neomycin), in accordance with CLSI guidelines.
Several compounds of the disclosure (Compound 1, 2, and 3) were further evaluated against several hundred bacterial isolates (isolated in the United States and Europe, 1:1) selected from the SENTRY Antimicrobial Surveillance Program (JMI Laboratories, North Liberty, Iowa). The set of clinical isolates included 300 randomly selected Enterobacterales, 103 randomly selected P. aeruginosa, 100 randomly selected A. baumannii-calcoaceticus, 20 randomly selected Methicillin-sensitive S. aureus (MSSA), and 30 randomly selected Methicillin-resistant S. aureus (MRSA). In addition, 101 Enterobacterales and 50 P. aeruginosa isolates with genetically defined mechanisms of aminoglycoside resistance were included. […]

[12] = tested on: clinical isolates of multi-drug resistant bacterial pathogens including A. baumannii, MRSA, P. aeruginosa, and CRE; assay: MIC secondary panel, overall statement; conditions: read-out: minimum inhibitory concentration (MIC) values
Protocol: as §2, §3
Several compounds of the disclosure (Compounds 1, 2, 3, and 6) were further evaluated against a secondary panel of clinical isolates of multi-drug resistant bacterial pathogens including A. baumannii, methicillin-resistant Staphylococcus aureus (MRSA), P. aeruginosa, and carbapenem-resistant Enterobacteriaceae (CRE).

[13] = tested on: A. baumannii-calcoaceticus; assay: Antibacterial surveillance of clinical isolates (MIC50/90); conditions: 100 isolates
Protocol: as §2, §3
(§4) Several compounds of the disclosure (Compound 1, 2, and 3) were further evaluated against several hundred bacterial isolates (isolated in the United States and Europe, 1:1) selected from the SENTRY Antimicrobial Surveillance Program (JMI Laboratories, North Liberty, Iowa). The set of clinical isolates included 300 randomly selected Enterobacterales, 103 randomly selected P. aeruginosa, 100 randomly selected A. baumannii-calcoaceticus, 20 randomly selected Methicillin-sensitive S. aureus (MSSA), and 30 randomly selected Methicillin-resistant S. aureus (MRSA). In addition, 101 Enterobacterales and 50 P. aeruginosa isolates with genetically defined mechanisms of aminoglycoside resistance were included. The MIC values at which ≥50% (MIC50) and ≥90% (MIC90) of isolates within a given set are inhibited were determined for each compound against each set of organisms.

[14] = tested on: P. aeruginosa; assay: as above; conditions: Pseudomonas aeruginosa, 103 isolates
Protocol: as §2, §3, §4

[15] = tested on: Enterobacterales; assay: as above
Protocol: as §2, §3, §4

NC[C@@H]1CC[C@@H](N)[C@@H](O[C@@H]2[C@@H](N)[C@H](O)[C@@H](NC(=O)[C@@H](O)[C@H](F)CN)[C@H](O)[C@H]2O[C@@H]2O[C@H](CO)[C@@H](O[C@H]3O[C@@H](CN)[C@@H](O)[C@H](O)[C@H]3N)[C@H]2O)O1 [Compound 1, (2R,3R)-4-amino-N-((1R,2S,3S,4R,5R,6S)-3-amino-5-(((2S,3R,4S,5R)-4-(((2R,3R,4R,5S,6S)-3-amino-6-(aminomethyl)-4,5-dihydroxytetrahydro-2H-pyran-2-yl)oxy)-3-hydroxy-5-(hydroxymethyl)tetrahydrofuran-2-yl)oxy)-4-(((2R,3R,6S)-3-amino-6-(aminomethyl)tetrahydro-2H-pyran-2-yl)oxy)-2,6-dihydroxycyclohexyl)-3-fluoro-2-hydroxybutanamide]
MIC [1]: < 16 µg/mL
MIC [2]: < 16 µg/mL
MIC ([3]; read-out: Activity (MIC), strain AECO1225, MDR Clinical isolate (CDC CRE panel), CDC AR Bank 0118): < 16 µg/mL
MIC ([3]; read-out: Activity (MIC), strain AECO1226, MDR Clinical isolate (CDC CRE panel), CDC AR Bank 0119): < 16 µg/mL
MIC ([3]; read-out: Activity (MIC), strain AECO1227, MDR Clinical isolate (CDC CRE panel), CDC AR Bank 0128): < 16 µg/mL
MIC ([3]; read-out: Activity (MIC), strain NECO0003, ΔtolC): < 16 µg/mL
MIC ([3]; read-out: Activity (MIC), strain NECO0245, ArmA): < 16 µg/mL
MIC ([3]; strain NECO0001, WT QC, read-out: Activity (MIC)): < 16 µg/mL
MIC ([3]; strain NECO0002, WT, read-out: Activity (MIC)): < 16 µg/mL
MIC ([3]; strain NECO0243, empty vector, read-out: Activity (MIC)): < 16 µg/mL
MIC ([3]; strain NECO0244, AAC(6')-Ib, read-out: Activity (MIC)): < 16 µg/mL
MIC ([3]; strain NECO0289, APH(3')-Ia, read-out: Activity (MIC)): < 16 µg/mL
MIC ([3]; strain NECO0302, AAC(3)-IIa, read-out: Activity (MIC)): < 16 µg/mL
MIC ([3]; strain NECO0350, AAC(2')-I, read-out: Activity (MIC)): < 16 µg/mL
MIC ([3]; strain NECO0359, ANT(4')-Ia, read-out: Activity (MIC)): < 16 µg/mL
MIC ([4]; read-out: Activity (MIC), strain NABA0007, ΔadeJK efflux): < 16 µg/mL
MIC ([4]; read-out: Activity (MIC), strain NABA1427, MDR Clinical isolate): < 16 µg/mL
MIC ([4]; read-out: Activity (MIC), strain NABA1433, MDR Clinical isolate): < 16 µg/mL
MIC ([4]; read-out: Activity (MIC), strain NABA1434, MDR Clinical isolate): < 16 µg/mL
MIC ([4]; read-out: Activity (MIC), strain NABA1436, MDR Clinical isolate): < 16 µg/mL
MIC ([4]; read-out: Activity (MIC), strain NABA1437, MDR Clinical isolate): < 16 µg/mL
MIC ([4]; read-out: Activity (MIC), strain NABA1438, MDR Clinical isolate): < 16 µg/mL
MIC ([4]; read-out: Activity (MIC), strain NABA1439, MDR Clinical isolate): < 16 µg/mL
MIC ([4]; read-out: Activity (MIC), strain NABA1448, MDR Clinical isolate): < 16 µg/mL
MIC ([4]; read-out: Activity (MIC), strain NABA1449, MDR Clinical isolate): < 16 µg/mL
MIC ([4]; read-out: Activity (MIC), strain NABA1450, MDR Clinical isolate): < 16 µg/mL
MIC ([4]; strain NABA0006, WT parent, read-out: Activity (MIC)): < 16 µg/mL
MIC ([4]; strain NABA0020, AME negative strain, read-out: Activity (MIC)): < 16 µg/mL
MIC ([5]; ATCC29213, strain NSAU001, wild-type, QC, ATCC 29213): < 16 µg/mL
MIC ([5]; strain NSAU1004, MDR Clinical isolate): < 16 µg/mL
Activity (MIC) ([5]; strain NSAU1015, MDR Clinical isolate): + (MIC threshold for positive activity (+) is ≤16 μg/mL)
Activity (MIC) ([5]; strain NSAU1023, MDR Clinical isolate): + (MIC threshold for positive activity (+) is ≤16 μg/mL)
Activity (MIC) ([5]; strain NSAU1063, MDR Clinical isolate): + (MIC threshold for positive activity (+) is ≤16 μg/mL)
MIC ([6]; read-out: Activity (MIC), strain NPAE0006, Efflux KO, Aph(3')-IIb): < 16 µg/mL
MIC ([6]; read-out: Activity (MIC), strain NPAE0010, MexXY over-expressed, Aph(3')-IIb): < 16 µg/mL
MIC ([6]; read-out: Activity (MIC), strain NPAE1288, MDR Clinical isolate): < 16 µg/mL
MIC ([6]; read-out: Activity (MIC), strain NPAE1293, MDR Clinical isolate): < 16 µg/mL
MIC ([6]; read-out: Activity (MIC), strain NPAE1299, MDR Clinical isolate): < 16 µg/mL
MIC ([6]; read-out: Activity (MIC), strain NPAE1302, MDR Clinical isolate): < 16 µg/mL
MIC ([6]; read-out: Activity (MIC), strain NPAE1303, MDR Clinical isolate): < 16 µg/mL
MIC ([6]; read-out: Activity (MIC), strain NPAE1308, MDR Clinical isolate): < 16 µg/mL
MIC ([6]; read-out: Activity (MIC), strain NPAE1310, MDR Clinical isolate): < 16 µg/mL
MIC ([6]; read-out: Activity (MIC), strain NPAE1313, MDR Clinical isolate): > 16 µg/mL
MIC ([6]; read-out: Activity (MIC), strain NPAE1316, MDR Clinical isolate): < 16 µg/mL
MIC ([6]; read-out: Activity (MIC), strain NPAE1323, MDR Clinical isolate): < 16 µg/mL
MIC ([6]; strain NPAE0001, WT Aph(3')-IIb, QC, read-out: Activity (MIC)): < 16 µg/mL
MIC ([6]; strain NPAE0002, WT Aph(3')-IIb, read-out: Activity (MIC)): < 16 µg/mL
MIC ([6]; strain NPAE0359, aph(3')-IIb KO (tetR), read-out: Activity (MIC)): < 16 µg/mL
MIC [7]: < 16 µg/mL
MIC ([8]; Klebsiella pneumoniae, strain AKPN1246, MDR Clinical isolate (CDC CRE panel), CDC AR Bank 0139): < 16 µg/mL
Activity (MIC) ([8]; strain AKPN1250, MDR Clinical isolate (CDC CRE panel), CDC AR Bank 0143): + (MIC threshold for positive activity (+) is ≤16 μg/mL)
Activity (MIC) ([8]; strain AKPN1253, MDR Clinical isolate (CDC CRE panel), CDC AR Bank 0148): + (MIC threshold for positive activity (+) is ≤16 μg/mL)
Activity (MIC) ([8]; strain AKPN1255, MDR Clinical isolate (CDC CRE panel), CDC AR Bank 0153): + (MIC threshold for positive activity (+) is ≤16 μg/mL)
MIC [9]: < 16 µg/mL
MIC [10]: < 16 µg/mL
MIC50 [11]: ≤ 16 µg/mL
MIC [12]: ≤ 16 µg/mL
MIC50 ([13]; read-out: MIC50): < 16 µg/mL
MIC90 ([13]; read-out: MIC90): < 16 µg/mL
MIC50 ([14]; read-out: MIC50): < 16 µg/mL
MIC90 ([14]; read-out: MIC90): < 16 µg/mL
MIC50 [15]: < 16 µg/mL
MIC90 [15]: < 16 µg/mL
